Assay results published in US10370436B2, “Anti-pseudomonas Psl binding molecules and uses thereof” (priority 2011, dated 2019).

Key:
[1] = test system: luminescent P. aeruginosa serogroup 05 strain (PAO1.lux); assay: Opsonophagocytosis killing (OPK) assay, PAO1.lux; type: cell-based, Pseudomonas aeruginosa
Description: (§1) This example describes the evaluation of prioritized human IgG1 antibodies to promote OPK of P. aeruginosa. […] OPK assays were performed as described in (DiGiandomenico, A., et al., Infect Immun 72, 7012-7021 (2004)), with modifications. Briefly, assays were performed in 96-well plates using 0.025 ml of each OPK component; P. aeruginosa strains; diluted baby rabbit serum; differentiated HL-60 cells; and monoclonal antibody. In some OPK assays, luminescent P. aeruginosa strains, which were constructed as described (Choi, K. H., et al., Nat Methods 2, 443-448 (2005)), were used. Luminescent OPK assays were performed as described above but with determination of relative luciferase units (RLUs) using a Perkin Elmer ENVISION Multilabel plate reader (Perkin Elmer).
This example describes two series of experiments evaluating the ability of PMB-mAb conjugates to promote OPK of P. aeruginosa. In the first experiments (FIGS. 15A-B), conjugate-mediated OPK activity by human HL-60 neutrophil cell line in the presence of rabbit complement was evaluated using P. aeruginosa strains expressing bacterial luciferase as described in Example 2. R347 was used as a negative control in these experiments. […] In the second series of experiments, reduction in luminescence following 2 h incubation relative to control lacking mAb was used to determine % killing.

[2] = test system: P. aeruginosa strain 9882-80 (O11); assay: OPK assay, strain 9882-80.lux; type: cell-based, Pseudomonas aeruginosa; settings: strain 9882-80.lux (O11); FIG. 2B
Description: as §1
The ability of the WapR-004 and Cam-003 antibodies to mediate OPK activity against another clinically relevant O-antigen serotype strain, 9882-80.lux, was evaluated.

[3] = test system: non-mucoid P. aeruginosa strains from clinically relevant O-antigen serotypes; assay: OPK assay, non-mucoid clinical isolates; type: cell-based, Pseudomonas aeruginosa; settings: FIG. 2C
Description: as §1
The ability of Cam-003 to mediate OPK activity against representative non-mucoid strains from clinically relevant O-antigen serotypes and against mucoid P. aeruginosa strains which were derived from cystic fibrosis patients was evaluated.

[4] = test system: P. aeruginosa PAO1 and isogenic mutants; assay: Indirect ELISA on plates coated with P. aeruginosa strains; type: binding, Pseudomonas aeruginosa
From the text: In addition, duplication of VH CDR3 loop sequences in the libraries (a measure of clonal enrichment during selection), was also found to be higher in the patient library, reaching 88-92%, compared to 15-25% in the naïve library at round 3 (FIG. 1D). Individual scFv phage from affinity selections were next screened by ELISA for reactivity to P. aeruginosa heterologous serotype strains (FIG. 1E). ELISA plates (Nunc; MAXISORP™) were coated with P. aeruginosa strains from overnight cultures as described (DiGiandomenico, A., et al., Infect Immun 72, 7012-7021 (2004)). Diluted antibodies were added to blocked plates for 1 hour, washed, and treated with HRP-conjugated anti-human secondary antibodies for 1 hour followed by development and analysis as described (Ulbrandt, N. D., et al., J Virol 80, 7799-7806 (2006)). The dominant species of phage obtained from whole cell selections with both libraries yielded serotype specific reactivity (data not shown).
This example describes identification of the target of anti-P. aeruginosa antibodies derived from phenotypic screening. Target analysis was performed to test whether the serotype independent antibodies targeted protein or carbohydrate antigens. […] Isogenic mutants were constructed in genes responsible for O-antigen, alginate, and LPS core biosynthesis; wbpL (O-antigen-deficient); wbpL/algD (O-antigen and alginate deficient); rmlC (O-antigen-deficient and truncated outer core); and galU (O-antigen-deficient and truncated inner core). P. aeruginosa mutants were constructed based on the allele replacement strategy described by Schweizer (Schweizer, H. P., Mol Microbiol 6, 1195-1204 (1992); Schweizer, H. D., Biotechniques 15, 831-834 (1993)). Vectors were mobilized from E. coli strain 517.1 into P. aeruginosa strain PAO1; recombinants were isolated as described (Hoang, T. T., et al., Gene 212, 77-86 (1998)). Gene deletion was confirmed by PCR. P. aeruginosa mutants were complemented with pUCP30T-based constructs harboring wild type genes. […] The rmlC and galU genes were recently shown to be required for biosynthesis of the Psl exopolysaccharide, a repeating pentasaccharide polymer consisting of D-mannose, L-rhamnose, and D-glucose. Cam-003 binding to an isogenic pslA knockout PAO1ΔpslA, was tested, as pslA is required for Psl biosynthesis (Byrd, M. S., et al., Mol Microbiol 73, 622-638 (2009)). Binding of Cam-003 to PAO1ΔpslA was abolished when tested by ELISA (FIG. 3B) and FACS (FIG. 3C), while the LPS molecule in this mutant was unaffected (FIG. 3D). Binding of Cam-003 was restored in a PAO1ΔwbpL/algD/pslA triple mutant complemented with pslA (FIG. 3E) as was the ability of Cam-003 to mediate opsonic killing to complemented PAO1ΔpslA in contrast to the mutant (FIGS. 3F and 3G). Binding of Cam-003 antibody to a Pcl exopolysaccharide mutant was also unaffected further confirming Psl as our antibody target (FIG. 3E). Binding assays confirmed that the remaining antibodies also bound Psl (FIGS. 3H and 3I).

P. aeruginosa PAO10 LPS = assay: Endotoxemia (LPS challenge) model; type: in vivo, C57Bl/6 mice; settings: control mice dosed with unconjugated mAb
Description: In particular, C57Bl/6 mice (10 per group) were dosed i.p. with mAb or PMB-mAb conjugate 6 h prior to challenge with P. aeruginosa PAO10 LPS (Sigma) and D-galactosamine. PMB control was dosed i.p. 2 h prior to challenge at 0.2 mg/kg and typically provides 80-100% protection. Control mice dosed with unconjugated CAM-003 all died within 18 h.
TM conjugates were dosed at 45, 15 and 5 mg/kg.

[5] = test system: P. aeruginosa strain 6294; assay: P. aeruginosa sepsis model; type: in vivo, C57Bl/6 mice
Description: C57Bl/6 mice (10 per group) were dosed with mAb or PMB-mAb conjugates i.p (10, 1 and 0.1 mg/kg) 6 h prior to i.p. challenge with LD80-100 dose of P. aeruginosa strain 6294 (4E7 CFU). Data from two studies was combined in this analysis. Survival was monitored over 72 h. Combined results of two studies are shown in FIGS. 21A-C: Most control mice dosed with A7 or buffer died by 24 h. […] Conversely, the conjugates were less protective than CAM-003 at the low dose of 0.1 mg/kg, and protective activity correlated with in vitro OPK activity of the conjugates (WT>SM>DM>TM).

Cam-003: human IgG1 anti-Psl monoclonal antibody, VH SEQ ID NO: 1 and VL SEQ ID NO: 2
OPK EC50 ([1]; FIG. 9A): 0.06 µg/mL
OPK activity (concentration dependent killing) ([1]; human IgG1 antibodies, differentiated HL-60 cells, baby rabbit serum, FIG. 2A): superior OPK activity
OPK activity [2]: OPK activity extends to strain 9882-80
OPK activity [3]: mediated potent OPK of all non-mucoid clinical isolates tested
reactivity to purified LPS ([4]; LPS purified from PAO1): not observed
ELISA binding ([4]; PAO1ΔpslA, FIG. 3B): abolished
ELISA binding ([4]; PAO1ΔwbpL/algD/pslA triple mutant complemented with pslA, FIG. 3E): restored
ELISA binding ([4]; Pcl exopolysaccharide mutant, FIG. 3E): unaffected
ELISA binding ([4]; rmlC and galU mutants, FIGS. 3A, 3J): abolished
ELISA binding ([4]; wbpL or wbpL/algD double mutant, FIGS. 3A, 3J): unaffected
time within which all mice died (P. aeruginosa PAO10 LPS): ≤ 18 h
dose relation of protective activity ([5]; 10, 1 and 0.1 mg/kg): inversely correlated with dose
protection ([5]; 10, 1 and 0.1 mg/kg i.p. 6 h prior to i.p. challenge, survival over 72 h, FIGS. 21A-C): 50-90%
